Reference: PubChem BioAssay (NCI)
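These data come from cells grown in 96-well plates and exposed to compound for 48 hours at five concentrations. The concentration for 50% growth inhibition is given as GI50. TGI: total growth inhibition.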

Tests used:
Assay in all cases: growth of human tumour cells (NCI), 48 h
[1] = system: UO-31 renal
[2] = system: HOP-92 NSCLC
[3] = system: SNB-19 CNS
[4] = system: A498 renal
[5] = system: SF-539 CNS
[6] = system: OVCAR-4 ovarian
[7] = system: MALME-3M melanoma
[8] = system: NCI-H23 lung
[9] = system: OVCAR-5 ovarian
[10] = system: RPMI-8226 leukemia

SMILES	TGI [1] [µM]	TGI [2] [µM]	TGI [3] [µM]	TGI [4] [µM]	TGI [5] [µM]	TGI [6] [µM]	TGI [7] [µM]	TGI [8] [µM]	TGI [9] [µM]	GI50 [1] [µM]	GI50 [2] [µM]	GI50 [10] [µM]	TGI [10] [µM]	GI50 [3] [µM]	GI50 [5] [µM]	GI50 [6] [µM]	GI50 [7] [µM]	GI50 [8] [µM]	GI50 [9] [µM]	GI50 [4] [µM]
CC1(C)CCCC(C)(C2CCC3(C)C2C(O)CC2C4(C)CCC(O)C(C)(C)C4C(O)CC23C)O1 (stereo not drawn)	24.1	30.6	25.5	28.1	28.1	26	50.1	25.6	38.4											
N.N.O=P([O-])([O-])CN(CCN(CP(=O)([O-])[O-])CP(=O)([O-])[O-])CP(=O)([O-])[O-].[Pt+2]	> 100	> 100	> 100		> 100	> 100	> 100	> 100	> 100	> 100	> 100	> 100	> 100	> 100	> 100	> 100	> 100	> 100	> 100	
COc1cc2nc(-c3ccc(Cl)cc3)cc(OCCCN3CCCC3)c2cc1OC	6.63	5.43	14.6	5.19	8.07	22.6	4.52	12.1	13.7	1.72	0.85			3.14	2.44	3	1.68	2.45	1.03	2.19
CCOC(=O)C1=C(C)N(Cc2ccccc2)C(=O)C1CC#N (stereo not drawn)	> 100	82.5	> 100	> 100	> 100	> 100		> 100					> 100							
O=C1C(=O)c2ccccc2C(O)=C1CCCc1ccc(C2CCCC2)cc1	15.5			23	25.9	39.7	38	22.6	23.6	3.85		2.66	6.94		5.57	5.92	6.55	5.19	11	7.24
CCN(CC)CCOc1ccc(/C=C2\C[C@H]3[C@H]4CC=C5C[C@@H](O)CC[C@]5(C)[C@H]4CC[C@]3(C)[C@H]2O)cc1OC	18		> 50		9.82			23.9	18.6	7.23				17.1	1.43			11.2	9.44	
O=C(NNc1ccc(F)cc1)C1CCC(CNS(=O)(=O)c2ccc(Cl)c(Cl)c2)CC1 (stereo not drawn)	> 50	37.5	> 50		39.1	47			25.2	16.8	7.35	3.36	24.2	> 50	9.77	9.02			7.7	
COC(=O)C[CH2][Ge]([CH3])([CH3])[S]c1ccccc1	33.1	92.8	81.8		39.8	> 100	> 100	> 100	> 100	15.6	17.7	22.4	58.1	32.2	21.1	25.3	> 100	43.3	29.5	
CCOC(=O)c1ccc2c(c1)nc(/C=C/c1ccc(Cl)cc1)n2-c1cc(C(C)(C)C)[nH]n1	25.3		> 100	41.7	5.09	7.31	18.5	> 100	> 100	2.71		8.14	> 100	5.93	2.09	1.9	2.8	19.3	18.5	3.03
NC1=NN(c2ccccc2)C(=O)C1/C(=N\NC(=O)c1cc2ccccc2cc1O)C(=O)Nc1cccc(C(F)(F)F)c1 (stereo not drawn)	> 100	> 100	> 100			> 100	> 100	> 100	68.4				> 100							
COc1ccc2c(c1)[n+]([O-])c(-c1ccc(Br)cc1)c(N)[n+]2[O-]	> 100	> 100	> 100	> 100	> 100	> 100	60.1	55.3	> 100											
C/C=C(/CCC1NCCC2c3ccccc3NC12)[Si](C)(C)C (stereo not drawn)	20.2	18.8	29		29.5	20.9		28.8	20				13.7							
NC(=O)c1ncn(CCN2CCN(C(=O)NCCCCCCNC(=O)N3CCN(CCn4cnc(C(N)=O)c4N)CC3)CC2)c1N	> 100	> 100	> 100		> 100	> 100	> 100	> 100	> 100				> 100							
Clc1nc(Cl)c2c3c(sc2n1)CCCC3	> 100	> 100	> 100	> 100	> 100	> 100	> 100	> 100	> 100		3.88			> 100	> 100	5.5	> 100	5.92	> 100	> 100
COC(=O)N/N=C(\C(=O)Nc1cccc([N+](=O)[O-])c1)c1nc2ccc([N+](=O)[O-])cc2[nH]c1=O	> 100	> 100	> 100		> 100	> 100	> 100	> 100	> 100				> 100							
Cc1ccc(NC(=O)CC/C(CC(=O)C(C)(C)C)=N/NC(=O)C[N+](C)(C)C)cc1C	> 100		> 100		44.8	> 100	> 100	> 100	> 100											
O=C1C=CC(=Nc2ccccc2)c2ccccc21	23.3	28.4	> 100	39.4	29	27.4		13.1	33.4				38.3							
NCCCn1c2c(c3ccc([N+](=O)[O-])cc3c1=O)C(=O)c1cc(-c3ccccc3)ccc1-2	3.41	3.15		1.54	2.84	1.62		2.88	2.95	1.73	1.36	0.348	1.45		1.37	0.399		1.29	1.48	0.694
CC(=O)[CH-]C(=O)c1ccccc1.CC(=O)[CH-]C(=O)c1ccccc1.CC1(C)OCC(C2OC3OC(C)(C)OC3C2[O-])O1.CC1(C)OCC(C2OC3OC(C)(C)OC3C2[O-])O1.[Ti+4] (stereo not drawn)		22.8		30.2	28	68.4	28.5	38.3	29		6.84				13.6	20.4	10.5	18.2	12.3	15.7
C=C1CC[C@@H]2[C@](C)(COC(C)=O)[C@H](OC(C)=O)CC[C@@]2(C)[C@@H]1CC(Nc1ccc(S(=O)(=O)Nc2cc(C)on2)cc1)C1=CCOC1=O (stereo partly drawn)	3.52	8	12.2	20.3	3.06	10.5		5.9	4.05	1.69	3.07	1.54	5.43	3.12	1.59	2.91		2.31	2.16	7.69
O=c1c2c(c3ccccc3n1-c1ccccc1)NC(=S)NC2c1ccc(Cl)cc1 (stereo not drawn)	42.7	19	> 100	12.5	42.6	> 100		50.7	86.4	3.22	2.38			4.07	2.37	5.66		2.74	8.8	2.92
CN(C)CCC=C1c2ccccc2C(C)(C)c2ccccc21	20.7	14.7	28.5	26	22.2	26.6		28.9	31.4	4.8	1.88	2	5.93	15.2	10.4	12.5		14	15.9	12.9
C/C(=N\NS(=O)(=O)c1ccc(C)cc1)c1cc2ccccc2n1C	> 100		> 100	> 100	> 100	> 100	> 100	> 100					> 100							
CN(C)CCC(CCN(C)C)=NOC(=O)c1ccccc1	> 100		> 100	> 100	> 100	> 100	> 100	> 100					> 100							
Cn1cc(-c2csc(-c3cn(CCCCN4CCCCC4)c4ccc(F)cc34)n2)c2cccnc21		27.8		3.28		2.94		3.2	11.3		4.81					1.59		1.69	2.86	1.6
